These results are taken from PubChem BioAssay AID1259407 (Chemical Carcinogenesis Research Information System (CCRIS), 2018).

This data set has as its system CCRIS mutagenicity, Ames/micronucleus/aberration tests. Description: CCRIS mutagenicity studies.
[1] abbreviates: Test System: AMES SALMONELLA TYPHIMURIUM, Strain/Indicator: TA98, Metabolic Activation: NONE, Method: PREINCUBATION
[2] abbreviates: Test System: AMES SALMONELLA TYPHIMURIUM, Strain/Indicator: TA100, Metabolic Activation: NONE, Method: PREINCUBATION
The mark [3] stands for this setting: Test System: AMES SALMONELLA TYPHIMURIUM, Strain/Indicator: TA1535, Metabolic Activation: NONE, Method: PREINCUBATION
The mark [4] stands for this setting: Test System: AMES SALMONELLA TYPHIMURIUM, Strain/Indicator: TA98, Metabolic Activation: NONE, Method: STANDARD PLATE.
Setting [5] is: Test System: AMES SALMONELLA TYPHIMURIUM, Strain/Indicator: TA100, Metabolic Activation: NONE, Method: STANDARD PLATE.
Setting [6] is: Test System: AMES SALMONELLA TYPHIMURIUM, Strain/Indicator: TA98, Metabolic Activation: RAT, LIVER, S-9, AROCLOR 1254, Method: STANDARD PLATE.
[7] abbreviates: Test System: AMES SALMONELLA TYPHIMURIUM, Strain/Indicator: TA100, Metabolic Activation: RAT, LIVER, S-9, AROCLOR 1254, Method: STANDARD PLATE.

Calls of active or inactive are those of the source. How the calls were made is not given here.

As to `S=[Se]`, the mutagenic call is, setting by setting: (End Point: IN VITRO CHROMOSOMAL ABERRATIONS, Test System: CHO-LB CELLS, Metabolic Activation: NONE) “active; positive”; (End Point: IN VITRO CHROMOSOMAL ABERRATIONS, Test System: CHO-LB CELLS, Metabolic Activation: RAT, LIVER, S-9, AROCLOR 1254) “active; positive”; (Test System: AMES SALMONELLA TYPHIMURIUM, Strain/Indicator: TA97, Metabolic Activation: HAMSTER, LIVER, S-9, AROCLOR 1254 (5 OR 10%), Method: PREINCUBATION) “active; positive”; (Test System: AMES SALMONELLA TYPHIMURIUM, Strain/Indicator: TA97, Metabolic Activation: HAMSTER, LIVER, S-9, AROCLOR 1254 (30%), Method: PREINCUBATION) “inactive; negative”; (Test System: AMES SALMONELLA TYPHIMURIUM, Strain/Indicator: TA97, Metabolic Activation: NONE, Method: PREINCUBATION) “active; positive”; (Test System: AMES SALMONELLA TYPHIMURIUM, Strain/Indicator: TA97, Metabolic Activation: RAT, LIVER, S-9, AROCLOR 1254 (5 OR 10%), Method: PREINCUBATION) “active; positive”. Further, the mutagenic call was “inactive; negative” (Test System: AMES SALMONELLA TYPHIMURIUM, Strain/Indicator: TA97, Metabolic Activation: RAT, LIVER, S-9, AROCLOR 1254 (30%), Method: PREINCUBATION); “inactive; negative” (Test System: AMES SALMONELLA TYPHIMURIUM, Strain/Indicator: TA98, Metabolic Activation: HAMSTER, LIVER, S-9, AROCLOR 1254 (10%), Method: PREINCUBATION); “inactive; negative” under setting [1]; “inactive; negative” (Test System: AMES SALMONELLA TYPHIMURIUM, Strain/Indicator: TA98, Metabolic Activation: RAT, LIVER, S-9, AROCLOR 1254 (10%), Method: PREINCUBATION); “inactive; negative” (Test System: AMES SALMONELLA TYPHIMURIUM, Strain/Indicator: TA100, Metabolic Activation: HAMSTER, LIVER, S-9, AROCLOR 1254 (5%), Method: PREINCUBATION); “active; positive” (Test System: AMES SALMONELLA TYPHIMURIUM, Strain/Indicator: TA100, Metabolic Activation: HAMSTER, LIVER, S-9, AROCLOR 1254 (10%), Method: PREINCUBATION). Besides, the mutagenic call was “inactive; negative” under setting [2]; “inactive; negative” (Test System: AMES SALMONELLA TYPHIMURIUM, Strain/Indicator: TA100, Metabolic Activation: RAT, LIVER, S-9, AROCLOR 1254 (5 OR 10%), Method: PREINCUBATION); “inactive; negative” (Test System: AMES SALMONELLA TYPHIMURIUM, Strain/Indicator: TA1535, Metabolic Activation: HAMSTER, LIVER, S-9, AROCLOR 1254 (10%), Method: PREINCUBATION); “inactive; negative” under setting [3]; “inactive; negative” (Test System: AMES SALMONELLA TYPHIMURIUM, Strain/Indicator: TA1535, Metabolic Activation: RAT, LIVER, S-9, AROCLOR 1254 (10%), Method: PREINCUBATION).
For `CS(=O)CCC(=O)N1[C@@H](c2ccccc2O)SC[C@H]1C(=O)O` (some centres not stated), the mutagenic call under setting [4] is “inactive; negative”; the mutagenic call under setting [5] is “inactive; negative”; the mutagenic call (Test System: AMES SALMONELLA TYPHIMURIUM, Strain/Indicator: TA1535, Metabolic Activation: NONE, Method: STANDARD PLATE) is “inactive; negative”; the mutagenic call (Test System: AMES SALMONELLA TYPHIMURIUM, Strain/Indicator: TA1537, Metabolic Activation: NONE, Method: STANDARD PLATE) is “inactive; negative”; the mutagenic call (Test System: AMES SALMONELLA TYPHIMURIUM, Strain/Indicator: TA1538, Metabolic Activation: NONE, Method: STANDARD PLATE) is “inactive; negative”; the mutagenic call (Test System: E. COLI, Strain/Indicator: WP2, Metabolic Activation: NONE, Method: STANDARD PLATE) was “inactive; negative”. The mutagenic call (Test System: E. COLI, Strain/Indicator: WP2 UVRA, Metabolic Activation: NONE, Method: STANDARD PLATE) is “inactive; negative”.
In the case of `Cc1cc(C)c(N=Nc2c(O)c(S(=O)(=O)O)cc3cc(S(=O)(=O)O)ccc23)cc1C`, the mutagenic call reads like this: (Test System: AMES SALMONELLA TYPHIMURIUM, Strain/Indicator: TA100, Metabolic Activation: HAMSTER, LIVER, S-9, Method: PREINCUBATION (PRIVAL METHOD)) “active; positive”; (Test System: MOUSE LYMPHOMA, Strain/Indicator: L5178Y (TK+/TK-), Metabolic Activation: NONE, Method: SUSPENSION/PLATE) “active; positive. reevaluation of results: equivocal”; (Test System: MOUSE LYMPHOMA, Strain/Indicator: L5178Y (TK+/TK-), Metabolic Activation: RAT, LIVER, S-9, AROCLOR 1254, Method: SUSPENSION/PLATE) “active; positive. reevaluation of results: equivocal”.
Consider `O=[N+]([O-])c1cc2c3c(ccc4cccc(c43)CC2)c1`, for which the mutagenic call was “active; positive” (Test System: AMES SALMONELLA TYPHIMURIUM, Strain/Indicator: TA98(1,8-DNP6), Metabolic Activation: NONE, Method: STANDARD PLATE); “active; positive” (Test System: AMES SALMONELLA TYPHIMURIUM, Strain/Indicator: TA98(NR), Metabolic Activation: NONE, Method: STANDARD PLATE); “active; positive” under setting [4].
Take `OCCCCCCO`: the mutagenic call under setting [1] is “inactive; negative”; the mutagenic call (Test System: AMES SALMONELLA TYPHIMURIUM, Strain/Indicator: TA98, Metabolic Activation: RAT LIVER S-9, PHENOBARBITAL AND BETA-NAPHTHOFLAVONE, Method: PREINCUBATION) was “inactive; negative”; the mutagenic call under setting [2] was “inactive; negative”; the mutagenic call (Test System: AMES SALMONELLA TYPHIMURIUM, Strain/Indicator: TA100, Metabolic Activation: RAT LIVER S-9, PHENOBARBITAL AND BETA-NAPHTHOFLAVONE, Method: PREINCUBATION) is “inactive; negative”; the mutagenic call under setting [3] was “inactive; negative”; the mutagenic call (Test System: AMES SALMONELLA TYPHIMURIUM, Strain/Indicator: TA1535, Metabolic Activation: RAT LIVER S-9, PHENOBARBITAL AND BETA-NAPHTHOFLAVONE, Method: PREINCUBATION) was “inactive; negative”. The mutagenic call runs as follows: (Test System: AMES SALMONELLA TYPHIMURIUM, Strain/Indicator: TA1537, Metabolic Activation: NONE, Method: PREINCUBATION) “inactive; negative”; (Test System: AMES SALMONELLA TYPHIMURIUM, Strain/Indicator: TA1537, Metabolic Activation: RAT LIVER S-9, PHENOBARBITAL AND BETA-NAPHTHOFLAVONE, Method: PREINCUBATION) “inactive; negative”; (Test System: E.COLI, Strain/Indicator: WP2UVRA/PKM101, Metabolic Activation: NONE, Method: PREINCUBATION) “inactive; negative”; (Test System: E.COLI, Strain/Indicator: WP2UVRA/PKM101, Metabolic Activation: RAT LIVER S-9, PHENOBARBITAL AND BETA-NAPHTHOFLAVONE, Method: PREINCUBATION) “inactive; negative”.
`CC(=O)N(O)c1ccc(Cl)cc1`: the mutagenic call runs as follows: under setting [4], “inactive; negative”; under setting [6], “inactive; negative”; under setting [5], “inactive; negative”; under setting [7], “inactive; negative”.
Regarding `COC(=O)c1oc(NO)c(-c2ccccc2)c1-c1ccccc1`, the mutagenic call was “inactive; negative” under setting [1]; “inactive; negative” (Test System: AMES SALMONELLA TYPHIMURIUM, Strain/Indicator: TA98, Metabolic Activation: RAT, LIVER, S-9, AROCLOR, Method: PREINCUBATION); “inactive; negative” under setting [2]; “inactive; negative” (Test System: AMES SALMONELLA TYPHIMURIUM, Strain/Indicator: TA100, Metabolic Activation: RAT, LIVER, S-9, AROCLOR, Method: PREINCUBATION).
Take `CC(=O)ON(C(C)=O)c1ccccc1C`: the mutagenic call is, setting by setting: under setting [4], “inactive; negative”; under setting [6], “inactive; negative”; under setting [5], “inactive; negative”; under setting [7], “inactive; negative”.
